Data as given in the NIST ThermoML archive (doi:10.1007/s10765-011-0995-x).
Numbers after ± are expanded uncertainties.

Assays:
[1] = refractive index (Na D-line) (dimensionless); xn = mol fraction of the nth substance listed; conditions: 101 kPa, Liquid, Standard Abbe refractometry
[2] = xn = mol fraction of the nth substance listed; conditions: 101 kPa, Liquid; for speed of sound: Pulse-echo method

Cc1cccc(Cl)c1 [3-chlorotoluene] + CCCCCCCCCCO
Conditions | mass density, [2] [kg/m3] | refractive index, [1] | speed of sound, [2] [m/s] | viscosity, [2] [mPa·s]
298.15 K, x1 = 0.0745 | 837.98 ± 0.41 | 1.4371 ± 0.0005 | 1371.6 ± 1.3 | 10.08 ± 0.097
298.15 K, x1 = 0.1337 | 847.61 ± 0.4 | 1.4394 ± 0.0005 | 1364.4 ± 1.3 | 8.723 ± 0.086
298.15 K, x1 = 0.2017 | 859.18 ± 0.38 | 1.4424 ± 0.0005 | 1356 ± 1.3 | 7.28 ± 0.074
298.15 K, x1 = 0.2741 | 872.19 ± 0.36 | 1.446 ± 0.0005 | 1347 ± 1.3 | 5.927 ± 0.063
298.15 K, x1 = 0.3471 | 886.08 ± 0.34 | 1.4501 ± 0.0005 | 1338 ± 1.3 | 4.762 ± 0.053
298.15 K, x1 = 0.4139 | 899.55 ± 0.33 | 1.4545 ± 0.0005 | 1329.9 ± 1.3 | 3.862 ± 0.044
298.15 K, x1 = 0.4616 | 909.68 ± 0.31 | 1.4579 ± 0.0005 | 1324.3 ± 1.3 | 3.322 ± 0.038
298.15 K, x1 = 0.5532 | 930.44 ± 0.28 | 1.4653 ± 0.0005 | 1314.9 ± 1.3 | 2.496 ± 0.029
298.15 K, x1 = 0.6282 | 948.88 ± 0.26 | 1.4723 ± 0.0005 | 1308.1 ± 1.3 | 1.985 ± 0.023
298.15 K, x1 = 0.6772 | 961.72 ± 0.24 | 1.4772 ± 0.0005 | 1304.1 ± 1.3 | 1.724 ± 0.021
298.15 K, x1 = 0.7447 | 980.55 ± 0.21 | 1.4847 ± 0.0005 | 1300 ± 1.3 | 1.429 ± 0.017
298.15 K, x1 = 0.8245 | 1004.78 ± 0.2 | 1.4947 ± 0.0005 | 1296.6 ± 1.3 | 1.17 ± 0.015
298.15 K, x1 = 0.8876 | 1025.62 ± 0.23 | 1.5034 ± 0.0005 | 1296.2 ± 1.3 | 1.016 ± 0.013
298.15 K, x1 = 0.9433 | 1045.43 ± 0.26 | 1.5117 ± 0.0005 | 1297.1 ± 1.3 | 0.906 ± 0.012
298.15 K, x1 = 1 | 1067.29 ± 0.29 | 1.5207 ± 0.0005 | 1298.3 ± 1.3 | 0.798 ± 0.011
303.15 K, x1 = 0.0745 | 834.43 ± 0.42 | 1.4353 ± 0.0005 | 1355.2 ± 1.3 | 8.289 ± 0.083
303.15 K, x1 = 0.1337 | 844.01 ± 0.41 | 1.4378 ± 0.0005 | 1347 ± 1.3 | 7.171 ± 0.074
303.15 K, x1 = 0.2017 | 855.5 ± 0.39 | 1.4408 ± 0.0005 | 1337.4 ± 1.3 | 6.013 ± 0.064
303.15 K, x1 = 0.2741 | 868.42 ± 0.37 | 1.4445 ± 0.0005 | 1327.4 ± 1.3 | 4.905 ± 0.055
303.15 K, x1 = 0.3471 | 882.21 ± 0.35 | 1.4488 ± 0.0005 | 1318 ± 1.3 | 3.977 ± 0.045
303.15 K, x1 = 0.4139 | 895.58 ± 0.33 | 1.4533 ± 0.0005 | 1309.9 ± 1.3 | 3.261 ± 0.037
303.15 K, x1 = 0.4616 | 905.65 ± 0.32 | 1.4567 ± 0.0005 | 1304.4 ± 1.3 | 2.821 ± 0.033
303.15 K, x1 = 0.5532 | 926.26 ± 0.29 | 1.4641 ± 0.0005 | 1295.5 ± 1.3 | 2.161 ± 0.025
303.15 K, x1 = 0.6282 | 944.59 ± 0.26 | 1.4711 ± 0.0005 | 1289.3 ± 1.3 | 1.744 ± 0.021
303.15 K, x1 = 0.6772 | 957.36 ± 0.24 | 1.4761 ± 0.0005 | 1285.8 ± 1.3 | 1.523 ± 0.018
303.15 K, x1 = 0.7447 | 976.11 ± 0.22 | 1.4835 ± 0.0005 | 1281.9 ± 1.3 | 1.282 ± 0.016
303.15 K, x1 = 0.8245 | 1000.26 ± 0.19 | 1.4932 ± 0.0005 | 1278.3 ± 1.3 | 1.063 ± 0.014
303.15 K, x1 = 0.8876 | 1021.06 ± 0.22 | 1.5017 ± 0.0005 | 1276.7 ± 1.3 | 0.934 ± 0.012
303.15 K, x1 = 0.9433 | 1040.84 ± 0.26 | 1.5099 ± 0.0005 | 1276.5 ± 1.3 | 0.844 ± 0.012
303.15 K, x1 = 1 | 1062.81 ± 0.28 | 1.5189 ± 0.0005 | 1280.1 ± 1.3 | 0.746 ± 0.011
308.15 K, x1 = 0.0745 | 830.88 ± 0.42 | 1.4334 ± 0.0005 | 1335 ± 1.3 | 6.908 ± 0.071
308.15 K, x1 = 0.1337 | 840.4 ± 0.41 | 1.436 ± 0.0005 | 1325.8 ± 1.3 | 6.001 ± 0.064
308.15 K, x1 = 0.2017 | 851.82 ± 0.39 | 1.4391 ± 0.0005 | 1315.4 ± 1.3 | 5.022 ± 0.056
308.15 K, x1 = 0.2741 | 864.64 ± 0.38 | 1.443 ± 0.0005 | 1305 ± 1.3 | 4.123 ± 0.047
308.15 K, x1 = 0.3471 | 878.33 ± 0.36 | 1.4473 ± 0.0005 | 1295.4 ± 1.3 | 3.348 ± 0.038
308.15 K, x1 = 0.4139 | 891.6 ± 0.34 | 1.4518 ± 0.0005 | 1287.6 ± 1.3 | 2.771 ± 0.032
308.15 K, x1 = 0.4616 | 901.59 ± 0.32 | 1.4553 ± 0.0005 | 1282.4 ± 1.3 | 2.423 ± 0.028
308.15 K, x1 = 0.5532 | 922.06 ± 0.29 | 1.4628 ± 0.0005 | 1273.9 ± 1.3 | 1.862 ± 0.022
308.15 K, x1 = 0.6282 | 940.26 ± 0.27 | 1.4697 ± 0.0005 | 1268.3 ± 1.3 | 1.521 ± 0.018
308.15 K, x1 = 0.6772 | 952.94 ± 0.25 | 1.4747 ± 0.0005 | 1265.4 ± 1.3 | 1.343 ± 0.016
308.15 K, x1 = 0.7447 | 971.61 ± 0.23 | 1.482 ± 0.0005 | 1261.9 ± 1.3 | 1.142 ± 0.014
308.15 K, x1 = 0.8245 | 995.7 ± 0.19 | 1.4917 ± 0.0005 | 1258.4 ± 1.3 | 0.96 ± 0.013
308.15 K, x1 = 0.8876 | 1016.44 ± 0.21 | 1.5 ± 0.0005 | 1257.5 ± 1.3 | 0.851 ± 0.012
308.15 K, x1 = 0.9433 | 1036.25 ± 0.25 | 1.5082 ± 0.0005 | 1257.8 ± 1.3 | 0.777 ± 0.011
308.15 K, x1 = 1 | 1058.33 ± 0.27 | 1.5169 ± 0.0005 | 1262.1 ± 1.3 | 0.705 ± 0.01
